# ChEMBL document CHEMBL1201862, “PubChem BioAssay data set” (2004)
# The source made the active and inactive calls.
# How the values were obtained:
# [1] = biological target: T1, Corticotropin-releasing factor receptor 2/Corticotropin-releasing factor-binding protein (Homo sapiens, UniProt P24387+Q13324); assay: activators of CRF receptor 2 with binding protein – uHTS hits, confirmation (AID 602473); assay type: functional; details: read-out: EC50_Mean
# T1 sequence (Q13324 whole entry): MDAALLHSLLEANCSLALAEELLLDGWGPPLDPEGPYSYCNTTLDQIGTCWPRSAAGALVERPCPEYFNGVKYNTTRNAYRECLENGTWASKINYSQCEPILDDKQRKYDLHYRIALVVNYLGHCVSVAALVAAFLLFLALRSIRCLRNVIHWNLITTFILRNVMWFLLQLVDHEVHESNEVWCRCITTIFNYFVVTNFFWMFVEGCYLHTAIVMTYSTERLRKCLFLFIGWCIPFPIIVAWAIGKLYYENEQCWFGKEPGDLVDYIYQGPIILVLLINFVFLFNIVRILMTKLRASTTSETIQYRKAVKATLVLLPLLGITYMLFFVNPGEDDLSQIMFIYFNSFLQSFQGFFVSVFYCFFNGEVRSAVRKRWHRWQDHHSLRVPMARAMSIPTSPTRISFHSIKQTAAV
# T1 sequence (P24387 whole entry): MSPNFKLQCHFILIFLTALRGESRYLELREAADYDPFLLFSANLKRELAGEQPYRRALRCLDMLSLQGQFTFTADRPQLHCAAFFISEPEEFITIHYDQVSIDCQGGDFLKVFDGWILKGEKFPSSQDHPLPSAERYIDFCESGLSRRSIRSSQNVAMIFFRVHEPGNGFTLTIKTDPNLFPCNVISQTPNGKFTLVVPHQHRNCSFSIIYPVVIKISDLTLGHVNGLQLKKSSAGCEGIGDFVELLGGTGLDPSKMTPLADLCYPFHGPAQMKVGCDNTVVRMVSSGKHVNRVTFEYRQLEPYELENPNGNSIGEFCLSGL
# [2] = biological target: T1, Corticotropin-releasing factor receptor 2/Corticotropin-releasing factor-binding protein; assay: Dose Response confirmation of uHTS hits for small molecule antagonists of the CRF-binding protein and CRF-R2 receptor complex.; assay type: functional; details: read-out: IC50_Mean
# Cytochrome P450 1A2 = biological target: T2, Cytochrome P450 1A2 (Homo sapiens, UniProt P05177);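 further: PubChem cytochrome P450 panel assay, CYP1A2 panel member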
# T2 sequence (P05177 whole entry): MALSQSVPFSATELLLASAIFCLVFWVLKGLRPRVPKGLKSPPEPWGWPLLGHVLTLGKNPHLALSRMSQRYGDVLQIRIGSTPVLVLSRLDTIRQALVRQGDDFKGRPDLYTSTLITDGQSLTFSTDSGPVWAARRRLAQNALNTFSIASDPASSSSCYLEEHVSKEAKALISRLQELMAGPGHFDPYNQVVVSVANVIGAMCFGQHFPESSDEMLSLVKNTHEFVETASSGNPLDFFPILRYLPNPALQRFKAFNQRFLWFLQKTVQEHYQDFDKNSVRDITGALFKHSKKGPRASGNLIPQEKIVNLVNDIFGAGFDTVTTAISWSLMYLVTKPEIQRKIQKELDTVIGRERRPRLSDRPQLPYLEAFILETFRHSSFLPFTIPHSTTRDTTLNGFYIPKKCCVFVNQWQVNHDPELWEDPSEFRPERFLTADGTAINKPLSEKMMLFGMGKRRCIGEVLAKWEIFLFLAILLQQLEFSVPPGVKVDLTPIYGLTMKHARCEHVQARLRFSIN
# Cytochrome P450 2C19 = Cytochrome P450 2C19 (Homo sapiens, UniProt P33261); assay: Cytochrome panel assay with activity outcomes. Panel member name: p450-cyp2c19 Compounds with AC50 equal or less than 10 uM are considered active; assay type: functional
# Sequence of Cytochrome P450 2C19 (P33261 whole entry): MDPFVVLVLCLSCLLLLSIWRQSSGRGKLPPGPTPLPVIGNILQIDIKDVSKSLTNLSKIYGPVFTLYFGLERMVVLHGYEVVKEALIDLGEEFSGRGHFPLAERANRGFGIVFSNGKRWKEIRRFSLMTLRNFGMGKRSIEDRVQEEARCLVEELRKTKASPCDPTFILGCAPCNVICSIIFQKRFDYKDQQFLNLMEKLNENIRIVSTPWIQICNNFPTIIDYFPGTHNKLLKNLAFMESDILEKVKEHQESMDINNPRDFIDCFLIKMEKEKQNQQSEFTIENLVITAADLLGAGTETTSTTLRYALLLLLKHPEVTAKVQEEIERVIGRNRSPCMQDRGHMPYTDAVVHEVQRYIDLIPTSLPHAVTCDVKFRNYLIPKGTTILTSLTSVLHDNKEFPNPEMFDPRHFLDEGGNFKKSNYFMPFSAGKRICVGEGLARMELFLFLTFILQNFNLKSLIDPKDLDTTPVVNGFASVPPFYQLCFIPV
# cells = assay type: functional
# [3] = Luminescence Cell-Based Dose Retest to Confirm Inhibitors of Cancer Stem Cells. [Related pubchem assays (depositor defined):AID2717, AID2721]; assay type: functional; details: Homo sapiens
# H9c2 = assay: cells; assay type: functional, cell-based; details: Rattus norvegicus, H9c2, Myocardium;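 further: confirmatory concentration-response retest of ultra-high-throughput screening hits for modulation of myocardial damage; cell death induced by hydrogen peroxide oxidative stress; compound pretreatment for 60 min then peroxide exposure for 2 h; potency is for protecting the cells against peroxide damage rather than for killing them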
# [4] = cytotoxicity toward NIH3T3 fibroblasts, dose response, counter-screen, cell-based, ATP luminescence, mouse fibroblasts (AID 2010); assay type: functional;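 further: cells exposed to compound for about 90 hours before reading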
# [5] = inhibitors of intracellular T. cruzi replication, confirmation, NIH3T3 host cells, beta-gal luminescence (AID 2044); assay type: functional, cell-based;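 further: intracellular parasites grown in NIH/3T3 mouse fibroblasts as host cells; luminescent beta-galactosidase reporter signal from transgenic T. cruzi replicating inside host cells; inhibitors lower the luminescence signal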
# [6] = HEp-2 cell cytotoxicity, dose response, cytotoxicity control for RSV inhibitor project, HTS (AID 2410); assay type: functional; details: human respiratory syncytial virus
# H4 = assay: Luminescence Cell-Based Dose Response HTS to Identify Activators of 5'UTR Stem-Loop Driven Prion Protein mRNA Translation in H4 Neuroglioblastoma Cells. [Related pubchem assays: 1829 (Project Summary), 1814 (Primary HTS)]; assay type: functional; details: Homo sapiens
# [7] = Luminescence Cell-Based Dose Response HTS to Identify Activators of Luciferase Translation or Activity in H4 […] Cells. [Related pubchem assays: 1829 (Project Summary), 1814 (Primary HTS)]; assay type: functional
# Streptokinase A = biological target: T3, Streptokinase A (Streptococcus pyogenes serotype M1, UniProt P10520); assay: S. pyogenes streptokinase expression inhibitors, potency, dose response, plasminogen activation absorbance, OD405 (AID 1914); assay type: functional, Streptococcus pyogenes M1 GAS;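 further: secreted streptokinase activity via plasminogen activation per viability signal from cell pellet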
# T3 sequence (P10520 whole entry): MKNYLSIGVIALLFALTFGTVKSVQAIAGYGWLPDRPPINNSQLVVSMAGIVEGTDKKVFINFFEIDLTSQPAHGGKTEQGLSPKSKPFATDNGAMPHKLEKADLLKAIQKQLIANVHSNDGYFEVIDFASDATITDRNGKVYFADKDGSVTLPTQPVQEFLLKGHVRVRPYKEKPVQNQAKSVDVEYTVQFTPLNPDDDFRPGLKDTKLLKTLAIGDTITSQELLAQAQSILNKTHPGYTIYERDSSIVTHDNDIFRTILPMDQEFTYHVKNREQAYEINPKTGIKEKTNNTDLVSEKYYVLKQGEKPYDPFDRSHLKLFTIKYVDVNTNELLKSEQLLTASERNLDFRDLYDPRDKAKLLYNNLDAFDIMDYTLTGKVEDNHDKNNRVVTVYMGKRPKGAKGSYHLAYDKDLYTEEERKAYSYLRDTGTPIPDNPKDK
# [8] = tested on: Streptococcus sp. 'group A'; assay: growth inhibition of control SK(-) GAS strain, dose response, counter-screen for streptokinase expression inhibitor project, luminescence, kanamycin, BacTiterGlo, confirmation (AID 1900); assay type: functional, organism-based
# Streptococcus = assay: Group A Streptococcus viability loss, dose response, counter-screen for streptokinase expression inhibitor project, luminescence, BacTiterGlo (AID 1915); assay type: functional, organism-based;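 further: potency for reduction of bacterial viability or growth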
# Cytochrome P450 2D6 = Cytochrome P450 2D6 (Homo sapiens, UniProt P10635);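 further: CYP2D6 member of a cytochrome P450 panel assay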
# Sequence of Cytochrome P450 2D6 (P10635 whole entry): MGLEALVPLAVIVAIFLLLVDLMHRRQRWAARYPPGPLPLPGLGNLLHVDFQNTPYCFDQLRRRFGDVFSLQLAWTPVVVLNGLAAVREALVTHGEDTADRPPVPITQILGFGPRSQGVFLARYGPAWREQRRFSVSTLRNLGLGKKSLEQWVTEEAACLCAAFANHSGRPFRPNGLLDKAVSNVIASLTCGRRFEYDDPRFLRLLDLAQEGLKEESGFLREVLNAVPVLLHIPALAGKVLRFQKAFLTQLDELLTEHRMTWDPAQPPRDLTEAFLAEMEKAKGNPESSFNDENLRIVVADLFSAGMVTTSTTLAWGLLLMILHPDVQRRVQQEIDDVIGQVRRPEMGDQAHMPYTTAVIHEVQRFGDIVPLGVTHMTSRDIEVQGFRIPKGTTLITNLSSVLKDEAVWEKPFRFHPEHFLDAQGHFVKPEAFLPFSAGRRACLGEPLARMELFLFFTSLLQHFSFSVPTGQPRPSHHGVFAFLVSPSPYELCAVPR
# Cytochrome P450 3A4 = Cytochrome P450 3A4 (Homo sapiens, UniProt P08684);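 further: CYP3A4 tested as one member of a cytochrome P450 panel screen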
# Sequence of Cytochrome P450 3A4 (P08684 whole entry): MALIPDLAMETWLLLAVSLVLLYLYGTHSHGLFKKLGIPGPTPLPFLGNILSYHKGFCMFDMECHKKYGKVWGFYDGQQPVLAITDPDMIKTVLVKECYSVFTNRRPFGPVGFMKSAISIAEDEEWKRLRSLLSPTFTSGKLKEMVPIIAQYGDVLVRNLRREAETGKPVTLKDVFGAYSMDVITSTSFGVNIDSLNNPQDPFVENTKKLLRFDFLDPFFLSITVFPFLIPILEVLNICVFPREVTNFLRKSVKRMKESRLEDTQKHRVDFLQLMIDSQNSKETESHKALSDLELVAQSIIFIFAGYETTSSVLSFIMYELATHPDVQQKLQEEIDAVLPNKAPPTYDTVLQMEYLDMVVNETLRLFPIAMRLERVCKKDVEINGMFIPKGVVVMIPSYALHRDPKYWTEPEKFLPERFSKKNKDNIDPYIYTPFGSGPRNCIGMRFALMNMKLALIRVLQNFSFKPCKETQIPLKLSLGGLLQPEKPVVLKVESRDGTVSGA
# Paired box protein Pax-8 = Paired box protein Pax-8 (Homo sapiens, UniProt Q06710); assay: inhibitors of PAX8-driven TPO luciferase reporter, dose response, RMG-I cells, cherry-pick (AID 687027); assay type: functional, cell-based;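 further: luciferase reporter driven by Pax8 target thyroperoxidase promoter measured by SteadyGlo luminescence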
# Sequence of Paired box protein Pax-8 (Q06710 whole entry): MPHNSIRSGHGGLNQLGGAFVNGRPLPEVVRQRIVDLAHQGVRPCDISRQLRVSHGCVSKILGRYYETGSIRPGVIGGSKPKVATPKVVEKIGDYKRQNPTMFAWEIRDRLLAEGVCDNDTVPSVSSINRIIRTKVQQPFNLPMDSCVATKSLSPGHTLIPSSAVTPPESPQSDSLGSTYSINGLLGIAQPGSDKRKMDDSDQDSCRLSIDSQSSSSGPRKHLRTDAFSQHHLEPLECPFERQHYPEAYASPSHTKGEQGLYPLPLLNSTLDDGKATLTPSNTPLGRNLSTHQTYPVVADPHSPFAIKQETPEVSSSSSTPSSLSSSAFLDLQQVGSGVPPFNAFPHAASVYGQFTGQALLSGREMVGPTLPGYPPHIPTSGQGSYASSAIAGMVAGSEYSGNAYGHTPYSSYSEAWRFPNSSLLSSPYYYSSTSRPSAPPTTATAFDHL
structure (smiles),measurement,setting,value
O=C(CSc1nc2ccccc2n1CCc1ccccc1)NC1CCS(=O)(=O)C1 (stereo not drawn),EC50,[1],> 53 µM (inactive)
same,IC50,[2],> 47.1 µM (inactive)
COc1ccc(C(=O)N2CCC[C@@]3(CCN(Cc4ccccc4)C3)C2)cc1,AC50,Cytochrome P450 1A2,12.6 µM (inconclusive)
Cc1cnc(CNc2cc(-c3ccoc3)ncn2)cn1,AC50,Cytochrome P450 1A2,25.1 µM (inconclusive)
CCN(CCCNC(=O)C1CCN(S(=O)(=O)CC)CC1)c1cccc(C)c1,AC50,Cytochrome P450 1A2,31.6 µM (inconclusive)
same,AC50,Cytochrome P450 2C19; read-out: AC50,39.8 µM (inconclusive)
CCOC(=O)C1CCN(C(=O)COc2cc(C)c(Br)c(C)c2)CC1,IC50,cells,30.2 µM (active)
O=c1c(Cl)c(NCc2ccc(F)cc2)cnn1C12CC3CC(CC(C3)C1)C2,AC50,[3],0.913 µM (active)
O=C(c1cc(-c2cccnc2)nc2ccc(Br)cc12)N1CCN(c2ncccn2)CC1,IC50,H9c2,> 79 µM (inactive)
COCCn1c(=O)c(-c2ccc(Cl)cc2)nc2cnc(N3CCOCC3)nc21,AC50,Cytochrome P450 1A2,1 µM (inconclusive)
CC(=O)Oc1ccc(/C=C2\N=C(C3CCCCC3)OC2=O)cc1,IC50,cells,33.9 µM (active)
COc1ccc(CNC(=O)c2sc(=S)n(-c3ccc(OC)cc3)c2N)cc1,EC50,[1],> 53 µM (inactive)
same,IC50,[2],> 47.1 µM (inactive)
O=C(CCN1CCCCC1=O)NC1CCCN(Cc2ccc(Cl)cc2)C1 (stereo not drawn),EC50,[1],> 53 µM (inactive)
same,IC50,[2],> 47.1 µM (inactive)
COc1ccc(-c2oc3c4c(cc(OC)c3c(=O)c2CC=C(C)C)OC(C)(C)C=C4)c(OC)c1,EC50,[4],> 60 µM (not active)
same,EC50,[5],2.08 µM (active)
same,AC50,[3],6.2 µM (active)
c1cc2cc(-c3c(-c4ccc5c(c4)OCO5)noc3-c3ccsc3)ccc2[nH]1,CC50,[6],44.8 µM (active)
same,AC50,[3],1.69 µM (active)
COC(=O)[C@@H]1[C@@H]2C[C@H]3c4[nH]c5cc(OC)ccc5c4CCN3C[C@@H]2C[C@H](OC(=O)c2cc(OC)c(OC)c(OC)c2)[C@H]1OC,AC50,Cytochrome P450 1A2,15.8 µM (inconclusive)
COc1ccc(CN(C(=O)c2nsc(Cl)c2Cl)C(C(=O)NC2CCCC2)c2ccc(OC)cc2)cc1 (stereo not drawn),EC50,[1],> 53 µM (inactive)
CC#CC(=O)N1CCC(C(=O)Nc2ccc(Oc3ccccc3)nc2)CC1,EC50,H4,73 µM (active)
same,EC50,[7],25.4 µM (active)
CC(=O)Nc1ccc(-c2csc(NC(=O)CCCc3cccs3)n2)cc1,AC50,[3],7.57 µM (active)
COC(=O)c1cc(NC(=O)c2cc3ccccc3o2)cc(C(=O)OC)c1,IC50,H9c2,> 79 µM (inactive)
COC(=O)C1=C(C)N(c2ccc(OC)cc2)C(C)=C(C(=O)OC)C1c1ccccc1,EC50,[1],> 53 µM (inactive)
same,IC50,[2],> 47.1 µM (inactive)
Cn1cccc1C(=O)N1CCC2(CCCN(c3ccccc3)C2)CC1,AC50,Cytochrome P450 1A2,10 µM (inconclusive)
Cc1cccc(-c2noc(C(C)NC(=O)c3ccco3)n2)c1 (stereo not drawn),EC50,[1],> 53 µM (inactive)
same,IC50,[2],> 47.1 µM (inactive)
COc1ccc(C(=O)COC(=O)Cc2nnc(O)c3ccccc23)c(OC)c1,IC50,H9c2,> 79 µM (inactive)
CCCCNc1c(-c2ccc(OC)c(SC3CCCCC3)c2)nc2cc(C)ccn12,EC50,Streptokinase A,9.9 µM (active)
same,EC50,[8],3.09 µM (active)
same,EC50,Streptococcus,10.1 µM (active)
same,AC50,[3],4.36 µM (active)
Cc1noc(C(F)(F)F)c1C(=O)NNC(=O)c1cccc(C(F)(F)F)c1,EC50,[1],> 53 µM (inactive)
same,IC50,[2],> 47.1 µM (inactive)
Cc1ccc(-n2nnnc2C(=Cc2ccc(N(C)C)cc2)c2nnnn2-c2ccc(C)cc2)cc1,AC50,Cytochrome P450 2D6,15.8 µM (inconclusive)
same,AC50,Cytochrome P450 1A2,12.6 µM (inconclusive)
Cc1ccc(-n2nc3c(c2NC(=O)c2ccc(OC(C)C)cc2)C[S+]([O-])C3)cc1 (stereo not drawn),EC50,[1],> 53 µM (inactive)
same,IC50,[2],> 47.1 µM (inactive)
CC(C)(C)C1COc2ccccc2N1C(=O)c1ccccc1Cl (stereo not drawn),EC50,[1],11.3 µM (active)
CCCN1CCc2c(sc(NC(=O)c3ccc(S(=O)(=O)N(C)c4ccccc4)cc3)c2C(N)=O)C1,EC50,[1],4.43 µM (active)
COc1ccc(/C=C(\C#N)C(=O)c2c(C)[nH]c3ccccc23)cc1OC,IC50,H9c2,> 79 µM (inactive)
Oc1nc2cc(F)ccc2c2ccc(F)cc12,IC50,H9c2,> 79 µM (inactive)
CCN(CC)C(=O)c1ccc(-c2nnc(Nc3ccc(O)cc3)c3ccccc23)cc1,IC50,H9c2,14.2 µM (active)
CC(C)N(C(=O)C[n+]1ccsc1N)c1ccccc1,EC50,[1],> 53 µM (inactive)
same,IC50,[2],> 47.1 µM (inactive)
COc1ccccc1C(=O)NCCC(=O)N1CCN(c2ccccc2O)CC1,EC50,[1],> 53 µM (inactive)
same,IC50,[2],> 47.1 µM (inactive)
O=C(O)[C@@H]1CCCN1Cc1cc2ccccc2c2ccccc12,AC50,Cytochrome P450 1A2,6.31 µM (inconclusive)
CC(C)(C)OC(=O)NCCCCCNC(=O)c1[nH]cnc1C(=O)Nc1cc(Br)ccc1F,IC50,H9c2,> 79 µM (inactive)
CC(=O)c1ccc(-c2cnc3c(NC=O)cc(-c4cccc(C(=O)N(C)C)c4)cn23)cc1,IC50,H9c2,11.2 µM (active)
Cc1cccn2c(/C=N/OCc3cccc(F)c3)c(-c3ccc(Cl)cc3)nc12,EC50,[1],> 53 µM (inactive)
same,AC50,Cytochrome P450 3A4,14.1 µM (inconclusive)
same,IC50,[2],> 47.1 µM (inactive)
same,AC50,[3],4.13 µM (active)
C/C(=N\OCC(=O)Nc1ccc(F)c(F)c1F)c1cc2ccccc2o1,EC50,[1],> 53 µM (inactive)
same,IC50,[2],> 47.1 µM (inactive)
Cc1nn(-c2ccccc2)c(C)c1/C=N/NC(=O)c1cc(C(C)(C)C)[nH]n1,IC50,H9c2,12.2 µM (active)
O=C(N/N=C\c1ccccn1)C1COc2cc3ccccc3cc2O1 (stereo not drawn),IC50,H9c2,> 79 µM (inactive)
Cc1ccc(S(=O)(=O)N(C)C[C@H]2Oc3c(NC(=O)Nc4ccc(F)cc4)cccc3C(=O)N([C@@H](C)CO)C[C@H]2C)cc1,AC50,Paired box protein Pax-8,11.5 µM (active)
N=C(N/N=C\c1ccc(Br)cc1)N/N=C\c1ccc(Br)cc1,EC50,[8],2.39 µM (active)
same,EC50,Streptococcus,5.33 µM (active)
same,AC50,[3],3.04 µM (active)
CN(C(=O)CCCOc1ccc2[nH]c(=O)ccc2c1)C1CCCCC1 [CILOSTAMIDE],AC50,Cytochrome P450 1A2,31.6 µM (inconclusive)
same,AC50,Cytochrome P450 2C19,inconclusive
